Assay results as given in ChEMBL document CHEMBL5316326, “Discovery of a Novel Covalent EZH2 Inhibitor Based on Tazemetostat Scaffold for the Treatment of Ovarian Cancer” (J Med Chem, 2023).
Active and inactive are the calls of the source. No cut-off for these calls is given here.

How the values were obtained:
OAW-42 = assay: Antiproliferative activity against human OAW-42 cells assessed as inhibition of cell proliferation incubated for 72 hrs by MTT assay; format: functional, cell-based; settings: OAW-42, 72 h
SK-OV-3 = assay: Antiproliferative activity against human SK-OV-3 cells assessed as inhibition of cell proliferation incubated for 72 hrs by MTT assay; format: functional, cell-based; settings: SK-OV-3, 72 h
BT-549 = assay: Antiproliferative activity against human BT-549 cells assessed as inhibition of cell proliferation incubated for 72 hrs by MTT assay; format: functional, cell-based; settings: BT-549, 72 h
A549 = assay: Antiproliferative activity against human A549 cells assessed as inhibition of cell proliferation incubated for 72 hrs by MTT assay; format: functional, cell-based; settings: A549, 72 h
OVCAR-3 = assay: Antiproliferative activity against human OVCAR-3 cells assessed as inhibition of cell proliferation incubated for 72 hrs by MTT assay; format: functional, cell-based; settings: OVCAR-3, 72 h
[1] = Antiproliferative activity against human COV362 cells assessed as inhibition of cell proliferation incubated for 72 hrs by MTT assay; format: functional, cell-based; settings: COV362, 72 h
SK-BR-3 = assay: Antiproliferative activity against human SK-BR-3 cells assessed as inhibition of cell proliferation incubated for 72 hrs by MTT assay; format: functional, cell-based; settings: SK-BR-3, 72 h
PA-1 [2] = assay: Antiproliferative activity against human PA-1 cells assessed as inhibition of cell proliferation incubated for 72 hrs by MTT assay; format: functional, cell-based; settings: PA-1, 72 h
MCF7 = assay: Antiproliferative activity against human MCF7 cells assessed as inhibition of cell proliferation incubated for 72 hrs by MTT assay; format: functional, cell-based; settings: MCF7, 72 h
[3] = molecular target: T1, Histone-lysine N-methyltransferase EZH2 (Homo sapiens, UniProt Q15910); assay: Inhibition of wild type EZH2 (unknown origin) by AlphaLlSA assay
Target sequence in this assay (Q15910 whole entry): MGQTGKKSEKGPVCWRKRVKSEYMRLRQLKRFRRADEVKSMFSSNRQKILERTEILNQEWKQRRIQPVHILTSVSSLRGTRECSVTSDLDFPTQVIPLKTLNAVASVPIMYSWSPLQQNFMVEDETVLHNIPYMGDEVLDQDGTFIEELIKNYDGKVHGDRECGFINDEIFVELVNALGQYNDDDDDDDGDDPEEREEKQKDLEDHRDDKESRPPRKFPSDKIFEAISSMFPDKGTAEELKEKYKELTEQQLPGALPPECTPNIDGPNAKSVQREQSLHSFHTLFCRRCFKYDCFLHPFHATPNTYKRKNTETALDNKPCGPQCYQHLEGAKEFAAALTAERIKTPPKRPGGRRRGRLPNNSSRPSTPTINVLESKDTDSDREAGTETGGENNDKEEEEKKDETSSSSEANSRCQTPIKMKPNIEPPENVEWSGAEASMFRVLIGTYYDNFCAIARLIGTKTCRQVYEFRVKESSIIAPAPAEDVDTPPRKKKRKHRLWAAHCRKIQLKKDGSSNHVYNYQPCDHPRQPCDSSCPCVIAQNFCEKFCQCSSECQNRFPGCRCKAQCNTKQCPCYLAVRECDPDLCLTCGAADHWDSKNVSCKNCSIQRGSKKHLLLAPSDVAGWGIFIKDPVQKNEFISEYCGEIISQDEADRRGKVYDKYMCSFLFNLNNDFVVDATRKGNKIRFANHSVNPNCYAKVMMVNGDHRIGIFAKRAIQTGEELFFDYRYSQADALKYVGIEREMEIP

A2780 [4] = assay: Antiproliferative activity against human A2780 cells assessed as inhibition of cell proliferation incubated for 72 hrs by MTT assay; format: functional, cell-based; settings: A2780, 72 h
HEY = assay: Antiproliferative activity against human HEY cells assessed as inhibition of cell proliferation incubated for 72 hrs by MTT assay; format: functional, cell-based
ES-2 = assay: Antiproliferative activity against human ES2 cells assessed as inhibition of cell proliferation incubated for 72 hrs by MTT assay; format: functional, cell-based; settings: ES-2, 72 h
NCI-H1703 = assay: Antiproliferative activity against human NCI-H1703 cells assessed as inhibition of cell proliferation incubated for 72 hrs by MTT assay; format: functional, cell-based; settings: NCI-H1703, 72 h
4T1 = assay: Antiproliferative activity against mouse 4T1 cells assessed as inhibition of cell proliferation incubated for 72 hrs by MTT assay; format: functional, cell-based; settings: 4T1, 72 h
[5] = molecular target: T1, Histone-lysine N-methyltransferase EZH2; assay: Binding affinity to wild type recombinant EZH2 (494 to 737 residues) (unknown origin) expressed in Escherichia coli assessed as adduct formation incubated for 2 hrs by LC-MS analysis
Target sequence in this assay (Q15910 whole entry, looked up): as the sequence (Q15910 whole entry) above

PA-1 [6] = assay: Antiproliferative activity against human PA-1 cells assessed as reduction in cell viability at 10 uM incubated for 3 days followed by compound washout and measured after 4 days by microscopy analysis; format: functional, cell-based; settings: time 3.0 day
PA-1 [7] = assay: Antitumor activity against human PA-1 cells xenografted in BALB/C nude mouse assessed as tumor growth inhibition at 150 mg/kg,po BID for 21 days; format: functional; settings: PA-1, 504 h, time 21 day, read-out: TGI
PA-1 [8] = assay: Inhibition of colony formation in human PA-1 cells assessed as reduction in number of colonies at 0.25 to 10 uM incubated for 14 days with medium change every 3 days by crystal violet staining method; format: functional, cell-based; settings: dose 0.25-10 µM, time 14.0 day
PA-1 [9] = assay: Inhibition of colony formation in human PA-1 cells assessed as reduction in size of colonies at 0.25 to 10 uM incubated for 14 days with medium change every 3 days by crystal violet staining method; format: functional, cell-based; settings: dose 0.25-10 µM, time 14.0 day
[10] = molecular target: T1, Histone-lysine N-methyltransferase EZH2; assay: Inhibition of EZH2 methyltransferase activity in human A2780 cells assessed as reduction in H3K27me3 level incubated for 3 days by Western blot analysis; format: cell-based
Target sequence in this assay (Q15910 whole entry): as above

A2780 [11] = assay: Inhibition of colony formation in human A2780 cells assessed as reduction in number of colonies at 0.25 to 10 uM incubated for 14 days with medium change every 3 days by crystal violet staining method; format: functional, cell-based; settings: dose 0.25-10 µM, time 14.0 day
A2780 [12] = assay: Inhibition of colony formation in human A2780 cells assessed as reduction in size of colonies at 0.25 to 10 uM incubated for 14 days with medium change every 3 days by crystal violet staining method; format: functional, cell-based; settings: dose 0.25-10 µM, time 14.0 day

SMILES | IC50 (SK-OV-3) [µM] | IC50 (BT-549) [µM] | IC50 (A549) [µM] | IC50 (OVCAR-3) [µM] | IC50 (SK-BR-3) [µM] | IC50 (MCF7) [µM] | IC50 [3] [µM] | IC50 (A2780 [4]) [µM] | IC50 (NCI-H1703) [µM] | IC50 (4T1) [µM] | IC50 (OAW-42) [µM] | IC50 [1] [µM] | IC50 (PA-1 [2]) [µM] | IC50 (HEY) [µM] | IC50 (ES-2) [µM] | other results
C=CC(=O)NCc1ccc(-c2cc(C(=O)NCc3c4c(c(C)[nH]c3=O)CCCC4)c(C)c(N(CC)C3CCOCC3)c2)cc1 |  |  |  |  |  |  | 0.0108 |  |  |  |  |  |  |  |  | Activity [5]: inactive
CCOCCNC(=O)/C(C)=C/C[C@@]12OC(C)(C)C3C[C@@H](C=C4C(=O)c5c(O)c(C/C=C(\C)CCC=C(C)C)c(O)c(CC=C(C)C)c5O[C@]431)C2=O (single isomer, unassigned) |  |  |  |  |  |  | 1.1 |  |  |  |  |  |  |  |  | 
CCC(=O)Nc1ccc(C)c(-c2cc(C(=O)NCc3c(C)cc(C)[nH]c3=O)c(C)c(N(CC)C3CCOCC3)c2)c1 | > 100 | > 100 | > 100 | > 100 | > 100 | > 100 | 0.00301 | 60.4 | 69 | > 100 | > 100 | > 100 | 78.3 | > 100 | 89.5 | inhibition (PA-1 [8]): Dose-Dependent Effect; Activity (PA-1 [6]): inactive; Activity [5]: inactive; inhibition (PA-1 [9]): Dose-Dependent Effect; IC50 [10]: 4.72 µM; inhibition (A2780 [11]): Dose-Dependent Effect; inhibition (A2780 [12]): Dose-Dependent Effect

The next lines start with results.

IC50 (SK-OV-3) [µM] | IC50 (BT-549) [µM] | IC50 (A549) [µM] | IC50 (OVCAR-3) [µM] | IC50 (SK-BR-3) [µM] | IC50 (MCF7) [µM] | IC50 [3] [µM] | IC50 (A2780 [4]) [µM] | IC50 (NCI-H1703) [µM] | IC50 (4T1) [µM] | SMILES | IC50 (OAW-42) [µM] | IC50 [1] [µM] | IC50 (PA-1 [2]) [µM] | IC50 (HEY) [µM] | IC50 (ES-2) [µM] | other results
41.8 | 60.2 | 33.3 | > 100 | 66.2 | 63.3 | 0.00164 | 15.7 | 37.4 | 31 | C=CC(=O)Nc1cccc(-c2cc(C(=O)NCc3c(C)cc(C)[nH]c3=O)c(C)c(N(CC)C3CCOCC3)c2)c1 | > 100 | > 100 | 24.7 | 66.7 | 38.6 | 
68.4 | 23.3 | 23 | 29.8 | 15.5 | 18.8 |  | 12 | > 100 | 10.4 | CC[C@H](C)n1cc(C)c2c(C(=O)NCc3c(C)cc(C)[nH]c3=O)cc(-c3ccc(N4CCNCC4)nc3)cc21 [GSK2816126] | 55.4 | > 100 | 12.2 | > 100 | 32.2 | 
89.8 | 58.2 | > 100 | > 100 | 67.1 | > 100 |  | 47 | > 100 | 29.3 | CCN(c1cc(-c2ccc(CN3CCOCC3)cc2)cc(C(=O)NCc2c(C)cc(C)[nH]c2=O)c1C)C1CCOCC1 [TAZEMETOSTAT] | > 100 | > 100 | 46.6 | > 100 | 79 | Activity (PA-1 [6]): inactive; inhibition in vivo at 150 mg/kg (PA-1 [7]): 56.8%
> 100 | > 100 | > 100 | > 100 | > 100 | > 100 |  | 34.4 | > 100 | 58.4 | CCC(=O)Nc1cccc(-c2cc(C(=O)NCc3c(C)cc(C)[nH]c3=O)c(C)c(N(CC)C3CCOCC3)c2)c1 | > 100 | > 100 | > 100 | > 100 | > 100 | 
